Measured values reported in patent US20240309014A1, “MACROCYCLIC COMPOUNDS AND USES THEREOF” (President and Fellows of Harvard College, priority 2017, published 2024).

Legend:
[1] = system: human squamous cell carcinoma of the head and neck (SCCHN) cell line FaDu; assay: FaDu growth inhibition assay; format: cell-based; conditions: 3 days incubation, CellTiter-Glo
Experimental: In this assay, the growth inhibitory activity of test compounds in a human squamous cell carcinoma of the head and neck (SCCHN) cell line FaDu was measured. FaDu cells were maintained in an RPMI-1640 (Wako Pure Chemical Industries, Ltd., 187-02021) medium containing 10% fetal bovine serum (FBS: Nichirei, 12D168), and penicillin and streptomycin in a 5% CO2 incubator (37° C.). To each well of a 96 well plate (Becton, Dickinson and Company, 353219), 75 μL of FaDu cell suspension adjusted to a concentration of 4×10^4 cells/mL with the culture medium was added, and the cells were incubated overnight in a 5% CO2 incubator (37° C.). On the next day, 25 μL of Compound (1) or Halichondrin B in three-fold dilution series suspended in the culture medium was added to each well, and the resultant was incubated for 3 days in a 5% CO2 incubator (37° C.). Then, cell viability was determined by CellTiter-Glo® Luminescent Cell Viability Assay (Promega) with EnVision 2103 Multilabel Reader (Perkin-Elmer, Wellesley, MA). Value of the wells containing cells without adding the test compounds was defined as 100% and the value of the wells containing no cells was defined as 0%. The concentration of the test compound necessary for inhibiting the cell growth by 50% (i.e., an IC50 value) was calculated, and shown in Table 1.

[2] = system: FaDu subcutaneous xenograft; assay: Antitumor effects in FaDu subcutaneous xenograft model as monotherapy; format: in vivo, nude mice; conditions: intravenous at MTD: Halichondrin B 0.05 mg/kg, Compound (1) 0.2 mg/kg
Experimental: (§1) A human squamous cell carcinoma of the head and neck (SCCHN) cell line FaDu, which had been cultured in an RPMI-1640 medium containing 10% FBS, and penicillin and streptomycin, was adjusted to a concentration of 4.8×10^7 cells/mL with Hanks' Balanced Salt Solution to prepare a cell suspension. The cell suspension was inoculated in a volume of 100 μL into a subcutaneous part of a right flank of nude mice, 7 weeks of ages (CAnN.Cg-Foxnlnu/CrlCrlj, female, Charles River Laboratories Japan Inc.). Nine days after cell inoculation, the shortest diameter and the longest diameter of a tumor in each mouse were measured by using an electronic digital caliper (Digimatic™ caliper, Mitutoyo Corporation), so as to calculate the volume of the tumor in accordance with the following calculation formulae: […]
On the basis of the volumes of tumors obtained on the first day of administration, the mice were grouped such that averages of the tumor volumes were substantially equal among the groups. Each test compound was dissolved in DMSO and a solution was stored at the freezer before use. Immediately before the administration, the stock solution was diluted in saline with 100 μM of hydroxypropyl-β-cyclodextrin. Each evaluation sample was intravenously administered at a maximum tolerable dose (MTD). Incidentally, the experiment was conducted on groups each consisting of 4 mice.

[3] = system: FaDu subcutaneous xenograft; assay: FaDu subcutaneous xenograft model in combination with cetuximab; format: in vivo, nude mice
Source text: as §1, with “5×10^7” for “4.8×10^7”, “[…]” for “μL”, “Ten” for “Nine”
On the basis of the volumes of tumors obtained on the first day of administration, the mice were grouped such that averages of the tumor volumes were substantially equal among the groups. Each test compound was dissolved in DMSO and a solution was stored at the freezer before use. Immediately before the administration, the stock solution was diluted in saline with 100 μM of hydroxypropyl-β-cyclodextrin. […] Incidentally, the experiment was conducted on groups each consisting of 4 mice.

[4] = system: CD31-positive vessel in FaDu tumor; assay: Effect on CD31-positive vessel in the FaDu subcutaneous model (Test Example 9); format: in vivo, nude mice; conditions: five days after administration
Experimental: A human squamous cell carcinoma of the head and neck (SCCHN) cell line FaDu, which had been cultured in an RPMI-1640 medium containing 10% FBS, and penicillin and streptomycin, was adjusted to a concentration of 5×10^7 cells/mL with PBS to prepare a cell suspension. The cell suspension was inoculated in a volume of 100 μL into a subcutaneous part of a right flank of nude mice, 7 weeks of ages (CAnN.Cg-Foxnlnu/CrlCrlj, female, Charles River Laboratories Japan, Inc.). Ten days after cell inoculation, a test compound in saline with 100 μM of hydroxypropyl-β-cyclodextrin was intravenously administered at doses from ½ MTD to MTD. The experiment was conducted on groups each consisting of 3 mice. Five days after administration, tumor samples were collected and fixed with IHC Zinc Fixative (BD Pharmingen) at 4° C. for 24 hr. Paraffin-embedded tissues were sectioned ([…]), mounted on positively charged slides, and air-dried. Immunohistochemical staining of CD31 was conducted using Ventana autostainer model Discover XT (Roche Diagnostics) according to the manufacture's protocol. Sections were deparaffinized, conditioned and the antigens were retrieved with CC1 (Ventana Medical Systems). Slides were blocked with Blocker A and Blocker B (Endogenous biotin blocking kit, Roche Diagnostics). Rat anti-mouse IgG CD31 antibody (Dianova GmbH) was applied at 2 μg/mL. Sections were incubated with the antibody for 6 hr, followed by 32 minutes incubation with biotinylated anti-rat IgG antibody (Jackson ImmunoResearch Laboratories) at 2.2 μg/mL. The detection was performed with Streptavidin-HRP D for 16 min, followed by incubation with DAB D and DAB H2O2 D (DABMap kit, Ventana Medical Systems, Inc) for 8 min. Slides were counterstained with Hematoxylin II (Roche Diagnostics) for 16 min, followed by incubation with Bluing reagent for 4 min. Sections were dehydrated in graded ethanols, defatted in xylene replacement and covered with DPX (Merck KGaA).
Immunostained slides were scanned using Vectra 2 Automated Slide Imaging System (Perkin Elmer Inc.). The number of blood vessels in the whole tumor was quantified by counting the CD31-positive objects using in Form 2 software (PerkinElmer Inc.) Area of the tumor region was measured by assessing the hematoxylin-staining area using inform 2 software (PerkinElmer Inc.) The number of blood vessels was normalized by the area of the tumor region. An increase rate of the blood vessel number of the test compound-dosing group was calculated with the below formula, and shown in Table 9.

[5] = system: U2OS-EB3-AG cells; assay: Antiproliferative activity in U2OS-EB3-AG cells; format: cell-based
[6] = ¼ MTD i.v. (Halichondrin B 0.0125 mg/kg, Compound (1) 0.05 mg/kg) + cetuximab 20 mg/kg
[7] = ½ MTD i.v. (Halichondrin B 0.025 mg/kg, Compound (1) 0.1 mg/kg) + cetuximab 20 mg/kg
[8] = MTD i.v. (Halichondrin B 0.05 mg/kg, Compound (1) 0.20 mg/kg)
[9] = ½ MTD i.v. (Halichondrin B 0.025 mg/kg, Compound (1) 0.10 mg/kg)

Structure (SMILES) | IC50 [1] [nM] | Tumor Regression (%) [2] [%] | Tumor Regression on day 35 (%) [3, 6] [%] | Tumor Regression on day 35 (%) [3, 7] [%] | Increase rate of blood vessel number (%) [4, 8] [%] | Increase rate of blood vessel number (%) [4, 9] [%] | IC50 ([1]; Homo sapiens, FaDu, 72 h) [nM] | IC50 [5] [nM]
C=C1C[C@@H]2CC[C@@]34C[C@H]5O[C@H]6[C@@H](O3)[C@H]3O[C@H](CC[C@@H]3O[C@H]6[C@H]5O4)CC(=O)O[C@@H]3[C@@H](C)[C@@H]4O[C@@H]5C[C@]6(C[C@@H]7O[C@]8(C[C@H](C)[C@@H]9O[C@H]([C@@H](O)C[C@@H](O)CO)C[C@@H]9O8)C[C@H](C)[C@@H]7O6)O[C@@H]5C[C@@H]4O[C@H]3C[C@H]3O[C@@H](CC[C@@H]1O2)C[C@@H](C)C3=C [Halichondrin B, reference compound] | 0.124 | 0 | −38 | −2 | 39 | 31 |  | 
C=C1C[C@@H]2CC[C@@]34C[C@H]5O[C@H]6[C@@H](O3)[C@H]3O[C@H](CC[C@@H]3O[C@H]6C5O4)CC(=O)O[C@@H]3[C@@H](C)[C@@H]4O[C@@H]5C[C@]6(C[C@@H]7O[C@]8(C[C@H](C)[C@@H]9O[C@H](CN)[C@H](O)C[C@@H]9O8)C[C@H](C)[C@@H]7O6)O[C@@H]5C[C@@H]4O[C@H]3C[C@H]3O[C@@H](CC[C@@H]1O2)C[C@@H](C)C3=C (stereo in doubt) [Compound (1)] |  | 43 | 38 | 60 | 154 | 69 | 0.0714 | 0.5
